Laboratory results from article PMC7864192 (Cancers, 2021).
Values joined by “and” are separate entries in the source; they are usually repeats but may differ in a detail not shown here. Identical values can stand only once. Like-named read-outs stand apart in the source and are kept apart here.

Tests used:
[1] = test system: GCPA096 T1.XV patient-derived AGCT cell line; experiment: Cell viability drug screen (Cell Titer Glo 2.0, 72 h), mono- and combination therapy, GCPA096T1.XV; details: for DRI (Fa=0,5): GCPA096T1XV; for IC50: Homo sapiens, 72 h, read-out: IC50 in monotherapy
Protocol: (§1) Cell lines were seeded at a density of 500 cells/well in 40 uL in 384-well plates (Corning, NY, USA) with the Multidrop™ cell dispenser (Thermo Fischer Scientific, Waltham, MA, USA) and sealed with Breathe-Easy® membrane (Sigma-Aldrich, St. Louis, MO, USA) to prevent evaporation. The SVOG-3e line was seeded at 1000 cells/well due to contact-dependent growth requirements. For each cell line, three biological repeats and two technical repeats each were performed in order to ensure the validity of the drug screens. […] Subsequently, 11 drugs and 12 drug combinations were dispensed and all wells (excluding blanks and non-DMSO control wells) were normalized to 1% DMSO using the HP Tecan D300e Digital Dispenser (Hewlett-Packard, Palo Alto, CA, USA). All drugs were applied in linear concentration ranges (Table 2), including 16 data points to enable combination drug testing at constant ratios (Table 3). Next, the plates were covered with the Breathe-Easy membrane and incubated. After 72 h, the Multidrop dispensed 15 uL per well of Cell Titer Glo 2.0 (Thermo Fischer Scientific, Waltham, MA, USA) and plates were incubated in the dark for 10 min. After incubation, luminescence excitation was assessed in the Spectramax reader (Molecular Devices, San Jose, CA, USA) (top read, luminescence excitation at 500 nm) and raw data were processed in Microsoft Excel to subtract background luminescence. The Z-factor, a mathematical method used to quantify the quality of a drug screen based on the calculation of the separation band between the values of the positive and negative controls, was utilized to assess the quality of drug screens [54]. Screens with a Z-factor value of >0.5 were used for further analysis.
(§2) Overall cell survival (in %) was plotted against the drug concentration range of each drug (in log10[μM]) using GraphPad Prism 8.3.1. Values that exceeded 100% survival (within +20% biological deviation) were normalized to 100% survival. Similarly, values below 0% cell survival (within −20% biological deviation) were normalized to 0% survival. Values exceeding this deviation were excluded. Dose–response curves were obtained using the model “log(inhibitor) vs. variable slope (normalized response)” to fit the dose–response curves and R^2 values were used to indicate how well the model fit the data (Supplementary Materials Figures S4 and S5). […] The maximum plasma concentration (Cmax) and the plasma concentration at steady state (Css) were used as toxicity thresholds. The Cmax was utilized for drugs in which short, high-dosage time courses are required, while the Css was used for maintenance therapy regimes such as anti-hormonal treatment. […] The IC50 values were calculated based on the Chou–Talalay method using Compusyn software [55]. For anti-hormonal treatment, mostly provided as maintenance therapy, we used IC10 values in addition to the IC50.
(§3) In addition to the 11 monotherapies, 12 drug combinations were tested (Table 3) simultaneously with the individual drug treatments in the same 384-well plate. […] Synergy was evaluated using the mass action law, a systematic analysis assessing dose–response dynamics in a cost-effective manner [56, 57]. The combination index (CI) was used to indicate antagonistic (CI > 1) additive (CI = 1) and synergistic (CI < 1) effects [55].

[2] = test system: GCPA113 T1.I patient-derived AGCT cell line; experiment: Cell viability drug screen (Cell Titer Glo 2.0, 72 h), mono- and combination therapy, GCPA113T1.I; details: for DRI (Fa=0,5): GCPA113T1I; for IC50: Homo sapiens
Protocol: (§4) Cell lines were seeded at a density of 500 cells/well in 40 uL in 384-well plates (Corning, NY, USA) with the Multidrop™ cell dispenser (Thermo Fischer Scientific, Waltham, MA, USA) and sealed with Breathe-Easy® membrane (Sigma-Aldrich, St. Louis, MO, USA) to prevent evaporation. […] For each cell line, three biological repeats and two technical repeats each were performed in order to ensure the validity of the drug screens. […] Subsequently, 11 drugs and 12 drug combinations were dispensed and all wells (excluding blanks and non-DMSO control wells) were normalized to 1% DMSO using the HP Tecan D300e Digital Dispenser (Hewlett-Packard, Palo Alto, CA, USA). […] Next, the plates were covered with the Breathe-Easy membrane and incubated. After 72 h, the Multidrop dispensed 15 uL per well of Cell Titer Glo 2.0 (Thermo Fischer Scientific, Waltham, MA, USA) and plates were incubated in the dark for 10 min. After incubation, luminescence excitation was assessed in the Spectramax reader (Molecular Devices, San Jose, CA, USA) (top read, luminescence excitation at 500 nm) and raw data were processed in Microsoft Excel to subtract background luminescence. The Z-factor, a mathematical method used to quantify the quality of a drug screen based on the calculation of the separation band between the values of the positive and negative controls, was utilized to assess the quality of drug screens [54]. Screens with a Z-factor value of >0.5 were used for further analysis.
(§5) Overall cell survival (in %) was plotted against the drug concentration range of each drug (in log10[μM]) using GraphPad Prism 8.3.1. Values that exceeded 100% survival (within +20% biological deviation) were normalized to 100% survival. Similarly, values below 0% cell survival (within −20% biological deviation) were normalized to 0% survival. Values exceeding this deviation were excluded. Dose–response curves were obtained using the model “log(inhibitor) vs. variable slope (normalized response)” to fit the dose–response curves and R^2 values were used to indicate how well the model fit the data (Supplementary Materials Figures S4 and S5). […] The IC50 values were calculated based on the Chou–Talalay method using Compusyn software [55]. For anti-hormonal treatment, mostly provided as maintenance therapy, we used IC10 values in addition to the IC50.
as §3

[3] = test system: GCPA113 T1.III patient-derived AGCT cell line; experiment: Cell viability drug screen (Cell Titer Glo 2.0, 72 h), mono- and combination therapy, GCPA113T1.III; details: for DRI (Fa=0,5): GCPA113T1III; for IC50: Homo sapiens
Protocol: as §4, §5, §3

[4] = cited from earlier work
[5] = test system: GCPA096 T1.II patient-derived AGCT cell line; experiment: Cell viability drug screen (Cell Titer Glo 2.0, 72 h), mono- and combination therapy, GCPA096T1.II; details: for DRI (Fa=0,5): GCPA096T1II; for IC50: Homo sapiens, 72 h, read-out: IC50 in monotherapy
[6] = test system: SVOG-3e immortalized human granulosa cell line; experiment: Cell viability drug screen (72 h), SVOG-3e control; assay type: cell-based; details: monotherapy
Protocol: (§6) KGN was cultured in conditions identical to AGCT-patient-derived cell lines.
(§7) Cell lines were seeded at a density of 500 cells/well in 40 uL in 384-well plates (Corning, NY, USA) with the Multidrop™ cell dispenser (Thermo Fischer Scientific, Waltham, MA, USA) and sealed with Breathe-Easy® membrane (Sigma-Aldrich, St. Louis, MO, USA) to prevent evaporation. The SVOG-3e line was seeded at 1000 cells/well due to contact-dependent growth requirements. For each cell line, three biological repeats and two technical repeats each were performed in order to ensure the validity of the drug screens. […] Subsequently, 11 drugs and 12 drug combinations were dispensed and all wells (excluding blanks and non-DMSO control wells) were normalized to 1% DMSO using the HP Tecan D300e Digital Dispenser (Hewlett-Packard, Palo Alto, CA, USA). […] After incubation, luminescence excitation was assessed in the Spectramax reader (Molecular Devices, San Jose, CA, USA) (top read, luminescence excitation at 500 nm) and raw data were processed in Microsoft Excel to subtract background luminescence. […]
(§8) Overall cell survival (in %) was plotted against the drug concentration range of each drug (in log10[μM]) using GraphPad Prism 8.3.1. […] The IC50 values were calculated based on the Chou–Talalay method using Compusyn software [55]. […]

[7] = test system: GCPA108 T3.IV patient-derived AGCT cell line; experiment: Cell viability drug screen (Cell Titer Glo 2.0, 72 h), mono- and combination therapy, GCPA108T3.IV; details: for DRI (Fa=0,5): GCPA108T3IV; for IC50: Homo sapiens, read-out: IC50 in monotherapy
Protocol: as §1, §2, §3

[8] = test system: GCPA096 T1.I patient-derived AGCT cell line; experiment: Cell viability drug screen (Cell Titer Glo 2.0, 72 h), mono- and combination therapy, GCPA096T1.I; details: for DRI (Fa=0,5): GCPA096T1I; for IC50: Homo sapiens, read-out: IC50 in monotherapy
Protocol: as §4, §5, §3

[9] = test system: GCPA007 T2.I patient-derived AGCT cell line; experiment: Cell viability drug screen (Cell Titer Glo 2.0, 72 h), mono- and combination therapy, GCPA007T2.I; details: for IC50: Homo sapiens, 72 h, read-out: IC50 in monotherapy; for DRI (Fa=0,5): GCPA007T2I
Protocol: (§9) Cell lines were seeded at a density of 500 cells/well in 40 uL in 384-well plates (Corning, NY, USA) with the Multidrop™ cell dispenser (Thermo Fischer Scientific, Waltham, MA, USA) and sealed with Breathe-Easy® membrane (Sigma-Aldrich, St. Louis, MO, USA) to prevent evaporation. The SVOG-3e line was seeded at 1000 cells/well due to contact-dependent growth requirements. For each cell line, three biological repeats and two technical repeats each were performed in order to ensure the validity of the drug screens. […] Subsequently, 11 drugs and 12 drug combinations were dispensed and all wells (excluding blanks and non-DMSO control wells) were normalized to 1% DMSO using the HP Tecan D300e Digital Dispenser (Hewlett-Packard, Palo Alto, CA, USA). All drugs were applied in linear concentration ranges (Table 2), including 16 data points to enable combination drug testing at constant ratios (Table 3). Next, the plates were covered with the Breathe-Easy membrane and incubated. After 72 h, the Multidrop dispensed 15 uL per well of Cell Titer Glo 2.0 (Thermo Fischer Scientific, Waltham, MA, USA) and plates were incubated in the dark for 10 min. After incubation, luminescence excitation was assessed in the Spectramax reader (Molecular Devices, San Jose, CA, USA) (top read, luminescence excitation at 500 nm) and raw data were processed in Microsoft Excel to subtract background luminescence. […] Screens with a Z-factor value of >0.5 were used for further analysis.
as §2, §3

[10] = test system: GCPA096 T1.V patient-derived AGCT cell line; experiment: Cell viability drug screen (Cell Titer Glo 2.0, 72 h), mono- and combination therapy, GCPA096T1.V; details: for DRI (Fa=0,5): GCPA096T1V; for IC50: Homo sapiens, 72 h, read-out: IC50 in monotherapy
[11] = test system: GCPA113 T1.II patient-derived AGCT cell line; experiment: Cell viability drug screen (Cell Titer Glo 2.0, 72 h), mono- and combination therapy, GCPA113T1.II; details: for DRI (Fa=0,5): GCPA113T1II; for IC50: Homo sapiens
Protocol: as §4, §5, §3

[12] = test system: GCPA096 T1.XVI patient-derived AGCT cell line; experiment: Cell viability drug screen (Cell Titer Glo 2.0, 72 h), mono- and combination therapy, GCPA096T1.XVI; details: for DRI (Fa=0,5): GCPA096T1XVI; for IC50: Homo sapiens, read-out: IC50 in monotherapy
Protocol: as §9, §2, §3

[13] = test system: KGN cells (AGCT cell line); experiment: Cell viability drug screen (Cell Titer Glo 2.0, 72 h), mono- and combination therapy, KGN; details: for IC50: Homo sapiens, read-out: IC50 in monotherapy
Protocol: as §6, §9, §5

AGCT cell lines = experiment: Cell viability drug screen (72 h), summary over AGCT cell lines (12 patient-derived, with or without KGN); assay type: cell-based, human; details: Homo sapiens; median over AGCT cell lines; read-out: median IC50 in monotherapy
Protocol: as §1, §2, §3

[14] = test system: GCPA028 T1.II patient-derived AGCT cell line; experiment: Cell viability drug screen (Cell Titer Glo 2.0, 72 h), mono- and combination therapy, GCPA028; details: for IC50: Homo sapiens, read-out: IC50 in monotherapy
Protocol: as §9, §2, §3

[15] = test system: GCPA007 T2.IV patient-derived AGCT cell line; experiment: Cell viability drug screen (Cell Titer Glo 2.0, 72 h), mono- and combination therapy, GCPA007T2.IV; details: for DRI (Fa=0,5): GCPA007T2IV; for IC50: Homo sapiens, read-out: IC50 in monotherapy
Protocol: as §4, §5, §3

[16] = test system: MCF-7 human breast cancer cell line; experiment: Cell viability drug screen (72 h), MCF-7 positive control for anti-hormonal therapies; assay type: cell-based; details: monotherapy
Protocol: as §6, §7, §8

[17] = drug within Carbo+Pacli+Alpelisib
[18] = drug within Everolimus+Alpelisib
[19] = 72 h, read-out: IC50 in monotherapy
[20] = in combination Carbo+Pacli+Alpelisib
[21] = in combination Everolimus+Alpelisib

Cc1nc(NC(=O)N2CCC[C@H]2C(N)=O)sc1-c1ccnc(C(C)(C)C(F)(F)F)c1 [Alpelisib]
DRI (Fa=0,5) [1, 17]: 2.12 | DRI (Fa=0,5) [1, 18]: 1.36 | IC50 [1]: 14.6 µM | DRI (Fa=0,5) ([2]; in Carbo+Pacli+Alpelisib): 3.06 | DRI (Fa=0,5) ([2]; in Everolimus+Alpelisib): 0.95 | IC50 [2]: 9.59 µM | IC50 [2, 19]: 9.59 µM | IC50 ([2]; read-out: IC50 in monotherapy): 9.59 µM | DRI (Fa=0,5) [3, 17]: 5.76 | DRI (Fa=0,5) [3, 18]: 1.89 | IC50 [3]: 11.5 µM | IC50 [3, 19]: 11.5 µM | IC50 ([3]; read-out: IC50 in monotherapy): 11.5 µM | Cmax/Css plasma (Log 10) ([4]; human maximum or steady state plasma concentration, log10 of the uM value): 0.84 Log 10 | Cmax/Css plasma (Log 10) ([4]; human plasma Cmax/Css, log10 of uM value, from phase I/II clinical trials): 0.84 Log 10 | Cmax/Css plasma (Log 10) ([4]; human plasma maximum/steady state concentration, ref phase I/II clinical trials): 0.84 Log 10 | Cmax/Css plasma (Log 10) ([4]; human plasma, maximum or steady state concentration, log10 of uM value): 0.84 | Cmax/Css plasma (Log 10) ([4]; human plasma, log10 of uM, phase I/II trials): 0.84 | Cmax ([4]; read-out: Cmax (maximum drug concentration achieved in plasma), human plasma, phase I/II studies): 6.9 µM and 6.92 µM | Cmax ([4]; read-out: Cmax/Css plasma, human maximum or steady state plasma concentration): 6.92 µM | Cmax ([4]; read-out: Cmax/Css plasma, human plasma Cmax/Css, from phase I/II clinical trials): 6.92 µM | Cmax ([4]; read-out: Cmax/Css plasma, human plasma maximum/steady state concentration, ref phase I/II clinical trials): 6.92 µM | Cmax ([4]; read-out: Cmax/Css plasma, human plasma, maximum or steady state concentration): 6.92 µM | Cmax ([4]; read-out: Cmax/Css plasma, human plasma, phase I/II trials): 6.92 µM | DRI (Fa=0,5) [5, 17]: 2.15 | DRI (Fa=0,5) [5, 18]: 1.5 | IC50 [5]: 12.6 µM | IC50 [6]: 7.55 µM | DRI (Fa=0,5) ([7]; in Carbo+Pacli+Alpelisib): 13.6802 | DRI (Fa=0,5) ([7]; in Everolimus+Alpelisib): 5.603 | IC50 ([7]; 72 h): 53.9 µM | IC50 [7]: 53.9 µM | DRI (Fa=0,5) [8, 20]: 1.7 | DRI (Fa=0,5) [8, 21]: 1.24 | IC50 ([8]; 72 h): 11.7 µM | IC50 [8]: 11.7 µM | IC50 [9]: 22 µM | DRI (Fa=0,5) ([9]; in Carbo+Pacli+Alpelisib (10:1:2)): 10.78 | DRI (Fa=0,5) ([9]; in Everolimus+Alpelisib (1:2)): 1.24 | DRI (Fa=0,5) [10, 17]: 2.2 | DRI (Fa=0,5) [10, 18]: 1.57 | IC50 [10]: 15 µM | DRI (Fa=0,5) [11, 17]: 1.81 | DRI (Fa=0,5) [11, 18]: 1.09 | IC50 [11]: 21.4 µM | IC50 [11, 19]: 21.4 µM | IC50 ([11]; read-out: IC50 in monotherapy): 21.4 µM | DRI (Fa=0,5) ([12]; in Carbo+Pacli+Alpelisib): 1.95 | DRI (Fa=0,5) ([12]; in Everolimus+Alpelisib): 1.7 | IC50 ([12]; 72 h): 23.5 µM | IC50 [12]: 23.5 µM | IC50 ([13]; 72 h): 24.4 µM | IC50 [13]: 24.4 µM | DRI (Fa=0,5) [13, 17]: 10.9278 | DRI (Fa=0,5) [13, 18]: 1.384 | IC50 (AGCT cell lines): 15 µM | DRI (Fa=0,5) ([14]; GCPA028, in combination Carbo+Pacli+Alpelisib): 4.95 | DRI (Fa=0,5) ([14]; GCPA028, in combination Everolimus+Alpelisib): 0.99 | IC50 ([14]; 72 h): 22.8 µM | IC50 [14]: 22.8 µM | DRI (Fa=0,5) [15, 20]: 4.44 | DRI (Fa=0,5) [15, 21]: 10.73 | IC50 ([15]; 72 h): 26.7 µM | IC50 [15]: 26.7 µM

CC(C)(C#N)c1cc(Cn2cncn2)cc(C(C)(C)C#N)c1 [Anastrozole]
IC50 [1]: > 200 µM | IC50 [2, 19]: > 200 µM | IC50 [3, 19]: > 200 µM | IC50 [5]: > 200 µM | effect on cell viability at tolerable concentrations [16]: did not decrease cell viability at tolerable concentrations | IC50 ([7]; 72 h): > 200 µM | IC50 ([8]; 72 h): > 200 µM | IC50 [9]: > 200 µM | IC50 [10]: > 200 µM | IC50 [11, 19]: > 200 µM | IC50 ([12]; 72 h): > 200 µM | IC50 ([13]; 72 h): > 200 µM | IC50 ([14]; 72 h): > 200 µM | IC50 ([15]; 72 h): > 200 µM
